Measured values reported in patent publication US7250431B2, “Thiazole derivatives” (Hoffmann-La Roche Inc., priority 2003, dated 2007).

Target: T1, mouse NPY5-receptor (mNPY5) (Mus musculus, UniProt O70342)
T1 construct: The full-length cDNA encoding the mouse NPY5 (mNPY5) receptor was amplified from mouse brain cDNA; expressed in transfected cells; membranes used
T1 sequence (O70342 1-466): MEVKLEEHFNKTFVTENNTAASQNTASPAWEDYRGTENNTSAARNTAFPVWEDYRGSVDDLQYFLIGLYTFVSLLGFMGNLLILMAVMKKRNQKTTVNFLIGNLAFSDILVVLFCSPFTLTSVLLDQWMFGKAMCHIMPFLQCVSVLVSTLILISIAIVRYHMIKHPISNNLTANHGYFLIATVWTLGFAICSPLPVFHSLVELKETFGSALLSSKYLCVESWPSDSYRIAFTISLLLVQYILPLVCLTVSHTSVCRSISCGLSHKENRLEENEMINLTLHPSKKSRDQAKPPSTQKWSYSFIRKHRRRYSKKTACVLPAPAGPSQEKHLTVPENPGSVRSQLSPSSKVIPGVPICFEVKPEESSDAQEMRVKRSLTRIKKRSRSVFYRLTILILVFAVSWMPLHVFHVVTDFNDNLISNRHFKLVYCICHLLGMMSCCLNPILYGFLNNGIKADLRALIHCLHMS
Test: Radioligand competition binding
Conditions: membranes of HEK293 cells expressing recombinant mNPY5; 100 pM [125I]labelled peptide YY; 1 h at 22° C.; read-out: NPY5-R (mouse) IC50
From the text: The full-length cDNA encoding the mouse NPY5 (mNPY5) receptor was amplified from mouse brain cDNA using specific primers, designed based on the published sequence, and Pfu DNA-Polymerase. The amplification product was subcloned into the mammalian expression vector pcDNA3 using Eco RI and XhoI restriction sites. Positive clones were sequenced and one clone, encoding the published sequence was selected for generation of stable cell clones.
Human embryonic kidney 293 (HEK293) cells were transfected with 10 μg mNPY5 DNA using the lipofectamine reagent. Two days after transfection, geneticin selection (1 mg/ml) was initiated and several stable clones were isolated. One clone was further used for pharmacological characterization.
Human embryonic kidney 293 cells (HEK293), expressing recombinant mouse NPY5-receptor (mNPY5) were broken by three freeze/thawing cycles in hypotonic Tris buffer (5 mM, pH 7.4, 1 mM MgCl2), homogenized and centrifuged at 72,000×g for 15 min. The pellet was washed twice with 75 mM Tris buffer, pH 7.4, containing 25 mM MgCl2 and 250 mM sucrose, 0.1 mM phenylmethylsulfonylfluoride and 0.1 mM 1,10-pheneanthrolin, resuspended in the same buffer and stored in aliquots at −80° C. Protein was determined according to the method of Lowry using bovine serum albumine (BSA) as a standard. […]

Structure (SMILES)	IC50 [nM]
Cc1ccccc1C(=O)c1cnc(Nc2ccc(NS(=O)(=O)c3cccc(F)c3)cc2)s1 [Example 5, 3-Fluoro-N-{4-[5-(2-methyl-benzoyl)-thiazol-2-ylamino]-phenyl}-benzenesulfonamide]	0.74
Cc1ccccc1C(=O)c1cnc(Nc2cccc(NS(=O)(=O)c3cccs3)c2)s1 [Example 23, Thiophene-2-sulfonic acid {3-[5-(2-methyl-benzoyl)-thiazol-2-ylamino]-phenyl}-amide]	0.54
Cc1ccccc1C(=O)c1cnc(Nc2ccc(CNS(=O)(=O)c3cc(F)ccc3C)cc2)s1 [Example 37, 5-Fluoro-2-methyl-N-{4-[5-(2-methyl-benzoyl)-thiazol-2-ylamino]-benzyl}-benzenesulfonamide]	0.99
